Results: the NIST ThermoML archive (doi:10.1016/j.tca.2013.05.022)
Numbers after ± are expanded uncertainties.

Assays:
[1] = relative permittivity at zero frequency (dimensionless); φn = volume fraction of the nth substance listed; settings: 101 kPa, Liquid, Parallel plate capacitor
[2] = relative permittivity at zero frequency (dimensionless); settings: 101 kPa, Liquid, Parallel plate capacitor

Compound	relative permittivity at zero frequency ([1]; 303 K, φ2 = 0.1)	relative permittivity at zero frequency ([1]; 303 K, φ2 = 0.2)	relative permittivity at zero frequency ([1]; 303 K, φ2 = 0.3)	relative permittivity at zero frequency ([1]; 303 K, φ2 = 0.4)	relative permittivity at zero frequency ([1]; 303 K, φ2 = 0.5)	relative permittivity at zero frequency ([1]; 303 K, φ2 = 0.6)	relative permittivity at zero frequency ([1]; 303 K, φ2 = 0.7)	relative permittivity at zero frequency ([1]; 303 K, φ2 = 0.8)	relative permittivity at zero frequency ([1]; 303 K, φ2 = 0.9)	relative permittivity at zero frequency ([1]; 313 K, φ2 = 0.1)	relative permittivity at zero frequency ([1]; 313 K, φ2 = 0.2)	relative permittivity at zero frequency ([1]; 313 K, φ2 = 0.3)	relative permittivity at zero frequency ([1]; 313 K, φ2 = 0.4)	relative permittivity at zero frequency ([1]; 313 K, φ2 = 0.5)	relative permittivity at zero frequency ([1]; 313 K, φ2 = 0.6)	relative permittivity at zero frequency ([1]; 313 K, φ2 = 0.7)	relative permittivity at zero frequency ([1]; 313 K, φ2 = 0.8)	relative permittivity at zero frequency ([1]; 313 K, φ2 = 0.9)	relative permittivity at zero frequency ([1]; 323 K, φ2 = 0.1)	relative permittivity at zero frequency ([1]; 323 K, φ2 = 0.2)	also measured
Cc1ccccc1 [toluene] + CCO	3.97 ± 0.95	5.64 ± 0.95	7.43 ± 0.95	8.29 ± 0.95	10.1 ± 0.95	12.53 ± 0.95	15.27 ± 0.95	18.07 ± 0.95	21.14 ± 0.95	3.42 ± 0.95	5.27 ± 0.95	6.34 ± 0.95	7.98 ± 0.95	9.7 ± 0.95	12.26 ± 0.95	14.78 ± 0.95	17.72 ± 0.95	20.78 ± 0.95	2.95 ± 0.95	4.91 ± 0.95	relative permittivity at zero frequency ([1]; 323 K, φ2 = 0.3): 6.14 ± 0.95; relative permittivity at zero frequency ([1]; 323 K, φ2 = 0.4): 7.87 ± 0.95; relative permittivity at zero frequency ([1]; 323 K, φ2 = 0.5): 9.2 ± 0.95; relative permittivity at zero frequency ([1]; 323 K, φ2 = 0.6): 12.07 ± 0.95; relative permittivity at zero frequency ([1]; 323 K, φ2 = 0.7): 14.54 ± 0.95; relative permittivity at zero frequency ([1]; 323 K, φ2 = 0.8): 17.28 ± 0.95; relative permittivity at zero frequency ([1]; 323 K, φ2 = 0.9): 20.14 ± 0.95
CCO [ethanol] + Cc1ccccc1																					relative permittivity at zero frequency ([1]; 303 K, φ1 = 1): 24.26 ± 0.97; relative permittivity at zero frequency ([1]; 313 K, φ1 = 1): 23.85 ± 0.95; relative permittivity at zero frequency ([1]; 323 K, φ1 = 1): 23.25 ± 0.95
Cc1ccccc1 [toluene] + CO	5.82 ± 0.95	7.85 ± 0.95	10.56 ± 0.95	12.89 ± 0.95	15.86 ± 0.95	19.25 ± 0.95	22.54 ± 0.95	25.91 ± 1	29.34 ± 1.2	5.03 ± 0.95	7.57 ± 0.95	10.29 ± 0.95	12.66 ± 0.95	15.11 ± 0.95	18.71 ± 0.95	22.17 ± 0.95	25.38 ± 1	28.83 ± 1.1	4.87 ± 0.95	6.92 ± 0.95	relative permittivity at zero frequency ([1]; 323 K, φ2 = 0.3): 9.82 ± 0.95; relative permittivity at zero frequency ([1]; 323 K, φ2 = 0.4): 12.14 ± 0.95; relative permittivity at zero frequency ([1]; 323 K, φ2 = 0.5): 14.72 ± 0.95; relative permittivity at zero frequency ([1]; 323 K, φ2 = 0.6): 18.27 ± 0.95; relative permittivity at zero frequency ([1]; 323 K, φ2 = 0.7): 21.67 ± 0.95; relative permittivity at zero frequency ([1]; 323 K, φ2 = 0.8): 24.95 ± 1; relative permittivity at zero frequency ([1]; 323 K, φ2 = 0.9): 28.42 ± 1.1
CCO [ethanol]																					relative permittivity at zero frequency ([2]; 303 K): 24.26 ± 0.97; relative permittivity at zero frequency ([2]; 313 K): 23.85 ± 0.95; relative permittivity at zero frequency ([2]; 323 K): 23.25 ± 0.95
